Assay results from patent publication US20240130675A1, “Methods for Treating Autism Spectrum Disorder” (The General Hospital Corporation, priority 2021, published 2024).

Tests used:
ASD behaviors = conditions: 12 week, mean dose 5 mg/day; cited from earlier work
adults with HF-ASD [1] = assay: Uncontrolled (pilot) trial of memantine in adults with HF-ASD (Joshi et al., 2016); format: in vivo, human; conditions: estimate from pilot study, used for sample size
Text: Memantine is a moderate-affinity, non-competitive, NMDA receptor antagonist that is approved by the U.S. Food and Drug Administration (FDA) for the treatment of moderate to severe Alzheimer's disease (U.S. FDA, 2003).
We determined a priori that we would need a sample size of 40 participants in total (20 participants per group) to detect this difference in response rate at a 2-sided significance level of 0.05 with 80% power. Our final sample consisted of 16 participants in the memantine group and 19 participants in the placebo group with response data. With this sample size, we had […] power to detect the aforementioned difference in response rates.

youth with ASD [2] = assay: 12-week RCT: safety and tolerability (treatment-emergent AEs, vital signs, early terminations, rescue medication); format: in vivo, human
Procedure: (§1) This study was a 12-week, randomized, double-blind, placebo-controlled, parallel group clinical trial of memantine in youth with ASD. Youth with ASD who met the eligibility criteria were randomized to receive either memantine or placebo during the course of the 12-week trial. Participants underwent multimodal MRI scans prior to and upon completion of the 12-week trial. Participants were assessed weekly during the titration phase (baseline to Week 4) and at midpoint (Week 6), Week 9, and completion (Week 12) during the maintenance phase. At each study visit, safety and efficacy were assessed by administering measures of efficacy (CGI, GAF), tolerability (assessing treatment-emergent AEs), and safety (vital signs, including weight). At baseline, midpoint, and endpoint (completion/early termination) severity of autism was assessed by administering measures of autism severity (SRS-2, ABC-SW, CY-BOCS-PDD) and associated psychopathology (ADHD-RS, CDRS-R, CASI-ANX).
Safety and tolerability of memantine was monitored by administering a complete physical examination, battery of blood tests (complete blood count, electrolytes, liver function test, thyroid function test, and random glucose levels), Urine tests (drug screen and pregnancy screen [women of child-bearing potential only]), and EKG at baseline and endpoint of the trial, and by recording treatment-emergent AEs and obtaining vital signs (pulse, blood pressure, weight) at each study visit.
Safety results were summarized descriptively by treatment group and baseline glutamate activity level (high versus normal) and compared at the end of the study using Fisher's exact or Pearson's chi-square tests. All analyses were performed using Stata (Version 16) (StataCorp, Stata Statistical Software: Release 16. College Station, TX: StataCorp LLC. 2019).

youth with ASD [3] = assay: 12-week RCT: associated psychopathology and global functioning (ADHD-RS, CASI-ANX, CDRS-R, GAF); format: in vivo, human; conditions: MEM [N = 16]
Procedure: as §1
Additional treatment response of autism impairment was examined for the ASD subdomains by assessing change with treatment in the severity of the SRS-2 subscales and the Children's Yale Brown Obsessive Compulsive Scale modified for PDD (CY-BOCS-PDD) (Goodman et al., 1986 (Rev 89); Scahill et al., 2006) to assess change with treatment in the ritualistic behaviors associated with ASD. Treatment response of frequently associated psychopathologies with ASD was assessed by administering the clinician-rated Attention Deficit Hyperactivity Disorder Rating Scale (ADHD-RS) (DuPaul, Power, Anastopoulos, & Reed, 1998), Children's Depression Rating Scale-Revised (CDRS-R)(Poznanski et al., 1985), and CASI-4 ASD Anxiety Scale (CASI-4 ASD Anxiety Scale (CASI-Anx)(Gadow et al., 2002). Change with treatment in the level of global functioning was assessed by the clinician-rated GAF.
The mixed-effects regression models used to analyze the secondary measures of efficacy predicted the outcome measure from treatment group (memantine versus placebo), study visit (continuous), and the treatment group-by-study visit interaction, which is our test of efficacy. To examine the effect of baseline PgACC glutamate activity level on the response to treatment, we predicted outcomes measures from treatment group, study visit (continuous), PgACC glutamate activity level (continuous), treatment group-by-study visit interaction, glutamate activity level-by-study visit interaction, treatment group-by-glutamate activity level interaction, and treatment group-by-glutamate activity level-by-study visit interaction. All mixed-effects regression models had random intercepts by subject ID, used robust standard errors to account for the repeated measures on each subject, and used an independent covariance structure for the random effects. […] All missing data were assumed to be missing at random.
Effect sizes are presented as standardized mean differences (SMD) for continuous outcomes and odds ratios (OR) for dichotomous outcomes. The SMDs for the difference of the changes in scores over time between memantine and placebo and between high glutamate and normal glutamate were calculated as Cohen's d using the following calculations: the difference in the change scores between the two groups divided by the pooled standard deviation. The SMDs for changes in scores within groups were calculated as Cohen's d using the following calculation: difference in score from baseline to endpoint divided by the pooled standard deviation. For comparisons of memantine versus placebo and high glutamate versus normal glutamate, positive SMDs and ORs>1 indicate better improvement in the memantine group and high glutamate group, respectively. For comparisons of ASD versus healthy controls, positive SMDs indicate lower glutamate activity levels in the ASD group. […]

adults with HF-ASD [4] = conditions: cited from earlier work

For `CC12CC3CC(C)(C1)CC(N)(C3)C2` [MEM, memantine], which “ASD behaviors relative to placebo response” value (ASD behaviors) is on record?
Its value is “no improvement in ASD behaviors”.

What about the “Estimated share of participants on memantine responding to treatment” value (adults with HF-ASD [1]) of the same molecule?
The value was 57%.

What about the “Mean # of AEs” value (youth with ASD [2]; Glu Based Sample [MEM] High [N = 10]) of the same molecule?
Its value is 2.4 ± 1.3.

And the “Mean # of AEs” value (youth with ASD [2]; Glu Based Sample [MEM] Normal [N = 8])?
The value was 2.8 ± 1.0.

And the “Early Terminations: Treatment Limiting AEs” value (youth with ASD [2]; Unselected Sample MEM [N = 21])?
Its value is “Four”.

What about the “Mean # of AEs” value (youth with ASD [2]; Unselected Sample MEM [N = 21]) of the same molecule?
The value was 2.2 ± 1.2.

What about the “Participants completed trial (12 weeks)” value (youth with ASD [2]; Unselected Sample MEM [N = 21]) of the same molecule?
The value was 16 N.

And the “Severe AEs” value (youth with ASD [2]; Unselected Sample MEM [N = 21])?
Its value is “Two”.

And the “Severe AEs: Headache” value (youth with ASD [2]; Unselected Sample MEM [N = 21])?
Its value is 5%.

What about the “Severe AEs: Irritability + Agitation (Worsening)” value (youth with ASD [2]; Unselected Sample MEM [N = 21]) of the same molecule?
Its value is 5%.

What about the ADHD-RS (youth with ASD [3]; BL (baseline)) of the same molecule?
The ADHD-RS was 29.1 ± 13.6.

What about the CASI-ANX (youth with ASD [3]; BL (baseline)) of the same molecule?
Its CASI-ANX is 14.7 ± 8.6.

What about the CDRS-R (youth with ASD [3]; BL (baseline)) of the same molecule?
The CDRS-R was 31.4 ± 17.1.

And the GAF (youth with ASD [3]; BL (baseline))?
The GAF was 53.6 ± 2.7.

What about the ADHD-RS (youth with ASD [3]; EP (endpoint)) of the same molecule?
The ADHD-RS was 18.8 ± 10.9.

And the CASI-ANX (youth with ASD [3]; EP (endpoint))?
Its CASI-ANX is 7.4 ± 5.6.

And the CDRS-R (youth with ASD [3]; EP (endpoint))?
The CDRS-R was 22.8 ± 7.5.

What about the GAF (youth with ASD [3]; EP (endpoint)) of the same molecule?
Its GAF is 61.8 ± 4.4.

And the ADHD-RS (youth with ASD [3]; MD (mean difference))?
Its ADHD-RS is −10.3 ± 10.6.

And the CASI-ANX (youth with ASD [3]; MD (mean difference))?
The CASI-ANX was −7.3 ± 6.2.

And the CDRS-R (youth with ASD [3]; MD (mean difference))?
The CDRS-R was −8.7 ± 10.8.

And the GAF (youth with ASD [3]; MD (mean difference))?
The GAF was 8.2 ± 5.9.

What about the Social behaviors (adults with HF-ASD [4]; 12-week treatment, 20 mg/day, adults with HF-ASD) of the same molecule?
The Social behaviors was “significant improvement in social behaviors”.

And the Responders (adults with HF-ASD [4]; pilot study, 15-20 mg daily)?
Its Responders is “four out of seven”.
